# Counter-ions that a name gives are not always drawn. Like-named read-outs stand apart in the source and are kept apart here.
# Columns and labels:
# [1] = test system: experimental myocardial infarction; assay: Effects against an experimental myocardial infarction (anterior descending artery ligation, necrotic area by planimetry); assay type: in vivo, rabbit; details: for inhibition in vivo at 200 mg/kg: read-out: Inhibition rates (%), T = 200 mg/kg, i.v.
# Procedure: The chest wall of each animal was incised under artificial respiration, and the anterior descending artery was ligated (about 7 mm downward of the starting portion). 24 Hours later, the heart was taken out, and a myocardium between the cadiac apex and the ligated portion was sliced to have a thickness of 2 mm and stained to distinguish the infarction-affected portions by a phosphorylase reaction, whereupon the area of the necrotic portion was calculated by planimetory. Medicinal substances were administered 5 minutes prior to the ligation (T/2 mg/kg, i.v.), continuously from immediately after the ligation to one hour later (T/4 mg/kg/hr, by constant dropping), 2 hours after the ligation (T/8 mg/kg, i.v.) and 3 hours after the ligation (T/8 mg/kg, i.v.). Each medicinal substance was administered in the form of a physiological sodium chloride solution. Where the substance was hardly soluble, it was used in the form of a salt. To a control group was administered only a physiological sodium chloride solution. (T means a total amount of administration.)
# mice = assay: in vivo; details: i.v., tail of mice
# Procedure: (§1) Medicinal substances were administered intravenously from the tails of the mice.
# in vivo = details: mouse, in vivo, iv, tail of mice
# Procedure: as §1
# [2] = Oryctolagus cuniculus, iv, 24 h, vs control 14.1 ± 1.0
# [3] = T = 200 mg/kg, i.v., 8 cases, control 14.1 ± 1.0
# [4] = Oryctolagus cuniculus, iv, 24 h, vs control 14.9 ± 0.7
# [5] = T = 200 mg/kg, i.v., 8 cases, control 14.9 ± 0.7
# [6] = Oryctolagus cuniculus, iv, 24 h, T = 40 mg/kg, i.v., vs control 14.1 ± 1.0, read-out: Inhibition rates (%)
# [7] = T = 40 mg/kg, i.v., 8 cases, control 14.1 ± 1.0
structure (smiles),measurement,setting,value
COc1ccc(CN2CCN(C(=O)[C@H](CC(C)C)NC(=O)[C@@H]3O[C@H]3C(=O)[O-])CC2)c(OC)c1OC.[Na+] [listing 1 of 2 here],inhibition in vivo at 200 mg/kg,[1]; [2],30.5%
same,Necrotic area (mean ± S.E. %),[1]; [3],9.8 ± 0.9%
COc1ccc(CN2CCN(C(=O)[C@H](CC(C)C)NC(=O)[C@H]3O[C@@H]3C(=O)[O-])CC2)c(OC)c1OC.[Na+],inhibition in vivo at 200 mg/kg,[1]; [2],24.1%
same,Necrotic area (mean ± S.E. %),[1]; [3],10.7 ± 0.9%
same,MLD (in column LD50 mice),mice,> 1125 mg/kg
CC(C)C[C@H](NC(=O)[C@@H]1O[C@H]1C(=O)[O-])C(=O)N1CCN(c2ncccn2)CC1.[Na+] [listing 1 of 2 here],inhibition in vivo at 200 mg/kg,[1]; [2],23%
same,Necrotic area (mean ± S.E. %),[1]; [3],11.1 ± 0.7%
CC(C)C[C@H](NC(=O)[C@H]1O[C@@H]1C(=O)[O-])C(=O)N1CCN(c2ncccn2)CC1.[Na+],inhibition in vivo at 200 mg/kg,[1]; [2],26%
same,Necrotic area (mean ± S.E. %),[1]; [3],10.7 ± 0.4%
same,MLD (in column LD50 mice),mice,> 1125 mg/kg
CC(C)C[C@H](NC(=O)[C@@H]1O[C@H]1C(=O)[O-])C(=O)N1CCN(Cc2ccccc2)CC1.[Na+],inhibition in vivo at 200 mg/kg,[1]; [4],20.1%
same,Necrotic area (mean ± S.E. %),[1]; [5],11.9 ± 0.6%
same,MLD (in column LD50 mice),mice,> 1125 mg/kg
COc1ccc(CN2CCN(C(=O)[C@H](CC(C)C)NC(=O)[C@@H]3O[C@H]3C(=O)[O-])CC2)cc1.[Na+],inhibition in vivo at 200 mg/kg,[1]; [4],20.1%
same,Necrotic area (mean ± S.E. %),[1]; [5],11.9 ± 0.8%
same,MLD (in column LD50 mice),mice,> 1125 mg/kg
COc1ccc(CN2CCN(C(=O)[C@H](CC(C)C)NC(=O)[C@@H]3O[C@H]3C(=O)[O-])CC2)c(OC)c1OC.[Na+] [listing 2 of 2 here],inhibition in vivo at 200 mg/kg,[1]; [4],29.5%
same,Necrotic area (mean ± S.E. %),[1]; [5],10.5 ± 0.9%
same,MLD (in column LD50 mice),mice,> 1125 mg/kg
CCN1CCN(C(=O)[C@H](CC(C)C)NC(=O)[C@@H]2O[C@H]2C(=O)[O-])CC1.[Na+],inhibition in vivo at 200 mg/kg,[1]; [4],20.8%
same,Necrotic area (mean ± S.E. %),[1]; [5],11.8 ± 0.9%
same,MLD (in column LD50 mice),mice,> 1125 mg/kg
CC(C)C[C@H](NC(=O)[C@@H]1O[C@H]1C(=O)[O-])C(=O)N1CCN(CC=Cc2ccccc2)CC1.[Na+],inhibition in vivo at 100 mg/kg,"[1]; Oryctolagus cuniculus, iv, 24 h, read-out: Inhibition rates (%), T = 100 mg/kg, i.v., vs control 14.9 ± 0.7",25.5%
same,Necrotic area (mean ± S.E. %),"[1]; T = 100 mg/kg, i.v., 8 cases, control 14.9 ± 0.7",11.1 ± 0.6%
same,MLD (in column LD50 mice),mice,1000 to 1125 mg/kg
CC(C)C[C@H](NC(=O)[C@@H]1O[C@H]1C(=O)[O-])C(=O)N1CCN(c2ccccn2)CC1.[Na+],inhibition in vivo at 200 mg/kg,[1]; [4],22.1%
same,Necrotic area (mean ± S.E. %),[1]; [5],11.6 ± 0.7%
same,MLD (in column LD50 mice),mice,> 1125 mg/kg
CC(C)C[C@H](NC(=O)[C@@H]1O[C@H]1C(=O)[O-])C(=O)N1CCN(c2ncccn2)CC1.[Na+] [listing 2 of 2 here],inhibition in vivo at 200 mg/kg,[1]; [4],25.5%
same,Necrotic area (mean ± S.E. %),[1]; [5],11.1 ± 0.8%
same,MLD (in column LD50 mice),mice,> 1125 mg/kg
"COc1ccc(CCN(C)CCCC(C#N)(c2ccc(OC)c(OC)c2)C(C)C)cc1OC (racemic) [Verapanil hydrochloride, reference compound]",inhibition in vivo at 2 mg/kg,"[1]; Oryctolagus cuniculus, iv, 24 h, read-out: Inhibition rates (%), T = 2 mg/kg, i.v., vs control 14.6 ± 1.0",24.7%
same,Necrotic area (mean ± S.E. %),"[1]; T = 2 mg/kg, i.v., 7 cases (propranolol), 10 cases (verapanil), control 14.6 ± 1.0",11.0 ± 1.3%
CC(C)C[C@H](NC(=O)C1OC1C(=O)O)C(=O)N1CCN(C(c2ccccc2)c2ccccc2)CC1 (stereo partly drawn) [Compound 1],inhibition in vivo at 80 mg/kg,"[1]; Oryctolagus cuniculus, iv, 24 h, T = 80 mg/kg, i.v., vs control 14.9 ± 0.7, read-out: Inhibition rates (%)",24.8%
same,Necrotic area (mean ± S.E. %),"[1]; T = 80 mg/kg, i.v., 8 cases, control 14.9 ± 0.7",11.2 ± 0.5%
same,LD50,in vivo,174 mg/kg
"COc1ccc(CN2CCN(C(=O)[C@H](CC(C)C)NC(=O)C3OC3C(=O)OCC(C)C)CC2)c(OC)c1OC (stereo partly drawn) [Compound 9, Isobutyl trans-3-[(s)-3-methyl-1-{4-(2,3,4-trimethoxyphenylmethyl)piperazine-1-ylcarbonyl}butylcarbamoyl]oxirane-2-carboxylate 1/2 sulfate]",inhibition in vivo at 40 mg/kg,[1]; [6],18.4%
same,Necrotic area (mean ± S.E. %),[1]; [7],11.5 ± 1.2%
same,LD50,in vivo,440 mg/kg
"CCOC(=O)C1OC1C(=O)N[C@@H](CC(C)C)C(=O)N1CCN(Cc2ccc(OC)c(OC)c2OC)CC1 (stereo partly drawn) [Compound 10, Ethyl trans-3-[(s)-3-methyl-1-{4-(2,3,4-trimethoxyphenylmethyl)piperazine-1-ylcarbonyl}butylcarbamoyl]oxirane-2-carboxylate 1/2 sulfate]",inhibition in vivo at 40 mg/kg,[1]; [6],25.5%
same,Necrotic area (mean ± S.E. %),[1]; [7],10.5 ± 1.1%
"CCOC(=O)[C@@H]1O[C@H]1C(=O)N[C@@H](CC(C)C)C(=O)N1CCN(Cc2ccc(OC)c(OC)c2OC)CC1 [Compound 11, Ethyl (2R,3R)-3-[(s)-3-methyl-1-{4-(2,3,4-trimethoxyphenylmethyl)piperazine-1-ylcarbonyl}butylcarbamoyl]oxirane-2-carboxylate 1/2 sulfate]",inhibition in vivo at 40 mg/kg,[1]; [6],29.1%
same,Necrotic area (mean ± S.E. %),[1]; [7],10.0 ± 1.0%
same,LD50,in vivo,374 mg/kg
"CCOC(=O)[C@H]1O[C@@H]1C(=O)N[C@@H](CC(C)C)C(=O)N1CCN(Cc2ccc(OC)c(OC)c2OC)CC1 [Compound 12, Ethyl (2S,3S)-3-[(s)-3-methyl-1-{4-(2,3,4-trimethoxyphenylmethyl)piperazine-1-ylcarbonyl}butylcarbamoyl]oxirane-2-carboxylate 1/2 sulfate]",inhibition in vivo at 40 mg/kg,[1]; [6],19.9%
same,Necrotic area (mean ± S.E. %),[1]; [7],11.3 ± 1.2%
same,LD50,in vivo,345 mg/kg
"CC(C)NCC(O)COc1cccc2ccccc12 (stereo not drawn) [Propranolol hydrochloride, reference compound]",inhibition in vivo at 1 mg/kg,"[1]; Oryctolagus cuniculus, iv, 24 h, T = 1 mg/kg, i.v., vs control 14.6 ± 1.0, read-out: Inhibition rates (%)",6.2%
same,inhibition in vivo at 2 mg/kg,"[1]; Oryctolagus cuniculus, iv, 24 h, T = 2 mg/kg, i.v., vs control 14.6 ± 1.0, read-out: Inhibition rates (%)",23.3%
same,inhibition in vivo at 4 mg/kg,"[1]; Oryctolagus cuniculus, iv, 24 h, T = 4 mg/kg, i.v., vs control 14.6 ± 1.0, read-out: Inhibition rates (%)",26.7%
same,Necrotic area (mean ± S.E. %),"[1]; T = 1 mg/kg, i.v., 8 cases, control 14.6 ± 1.0",13.7 ± 1.1%

# From US4507297A, “Piperazine derivatives and a medicine containing the same” (priority 1981, dated 1985)
